This note sets out measurements from patent US20250282760A1 (Merck Sharp & Dohme LLC, priority 2022, published 2025).

In this assay the target is T1, human OX2R (Homo sapiens, UniProt O43614).
T1 construct: expressed in transfected cells; host or cells: Chinese hamster ovary (CHO) cells, kept under G418 selection
T1 sequence (O43614 1-444): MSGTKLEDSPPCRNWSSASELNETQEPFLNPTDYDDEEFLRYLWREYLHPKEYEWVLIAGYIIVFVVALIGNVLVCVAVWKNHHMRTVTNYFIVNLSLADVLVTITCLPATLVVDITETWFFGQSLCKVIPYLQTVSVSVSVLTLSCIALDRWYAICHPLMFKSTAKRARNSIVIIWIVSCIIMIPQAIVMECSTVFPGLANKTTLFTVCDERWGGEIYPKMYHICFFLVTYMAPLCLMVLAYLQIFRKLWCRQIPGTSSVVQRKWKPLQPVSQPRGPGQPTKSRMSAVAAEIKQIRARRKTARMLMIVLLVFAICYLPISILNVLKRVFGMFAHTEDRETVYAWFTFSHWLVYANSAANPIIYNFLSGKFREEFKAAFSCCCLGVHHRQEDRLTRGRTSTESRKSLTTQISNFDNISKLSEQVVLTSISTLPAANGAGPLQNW
Kind of assay: IPOne (IP-1 accumulation) assay of orexin receptor agonist activity in CHO cells expressing human OX2R. The format is cell-based. To be noted: for IC50: CHO cells expressing human OX2R, IP-One assay, 2 hours incubation, four parameter logistic fit, read-out: hOX2R_IP IC50; for Emax: CHO, percent activity at maximum tested concentration, relative to reference compound at 1 uM (100% activity) for human OX2R. An excerpt:
The utility of the compounds in accordance with the present invention as orexin receptor OX1R and/or OX2R agonists may be readily determined without undue experimentation by methodology well known in the art. Both the OX1R and/or OX2R G-coupled protein receptors (GPCRs) couple through the Gαq signaling pathway, which ultimately promotes calcium mobilization via inositol triphosphate (IP3) production. […] The utility of the compounds in accordance with the present invention as orexin receptor OX1R and/or OX2R agonists may be determined utilizing this assay.
In a typical experiment, the OX1 and OX2 receptor agonist activity is determined in accordance with the following general experimental method. Chinese hamster ovary (CHO) cells expressing human OX1R and/or the human OX2R were grown in Iscove's modified DMEM containing glutaMAX™, 1% G418, 100 U/mL penicillin, 100 μg/mL streptomycin and 10% heat-inactivated qualified fetal bovine serum (FBS). […] During this incubation, IP-one detection reagents were prepared (38:1:1 lysis buffer:D2:AB-cryptate reagents).
For each compound, data were fit to a four parameter logistic fit (ActivityBase software) and the EC50 was reported as the inflection point of the resulting curve. Percent effect for each test compound was determined as the percentage of sample raw value/mean max effect, where the mean max effect was derived from the mean raw value of 32 control wells per assay plate (using Orexin A (cat #003-30) at 1 μM for human OX1R and a reference compound at 1 uM with 100% activity previously established by comparison to Orexin A for human OX2R). The intrinsic orexin receptor agonist activity of a compound which may be used in the present invention may be determined by these assays.

Turning to `CC(C)C(=O)N1[C@H](C)CN(S(=O)(=O)c2ccccc2)C[C@@H]1C(=O)NCc1ccc2ccccc2c1` (relative stereo) [Example 19-1, cis-1-isobutyryl-6-methyl-N-(naphthalen-2-ylmethyl)-4-(phenylsulfonyl)piperazine-2-carboxamide], the IC50 (usually the concentration that gives 50% inhibition) came to 245 nM and the Emax (commonly the greatest response seen or fitted, relative to the assay's reference) turned out to be 100%.

On to `CC(C)C(=O)N1[C@H](C)CN(S(=O)(=O)c2ccccc2)C[C@@H]1C(=O)NCc1ccc(-c2ccccc2)cc1` (relative stereo) [Example 19-3, cis-N-([1,1′-biphenyl]-4-ylmethyl)-1-isobutyryl-6-methyl-4-(phenylsulfonyl)piperazine-2-carboxamide], for which the IC50 turned out to be 68.9 nM and the Emax is 87.1%.

With `CC(C)C(=O)N1[C@H](C)CN(S(=O)(=O)c2ccccc2)C[C@@H]1C(=O)NCc1ccc(OC(C)(F)F)cc1` (relative stereo) [Example 19-4, cis-N-(4-(1,1-difluoroethoxy)benzyl)-1-isobutyryl-6-methyl-4-(phenylsulfonyl)piperazine-2-carboxamide], the IC50 was 70.2 nM and the Emax was determined as 101%.

In the case of `CC(C)C(=O)N1[C@H](C)CN(S(=O)(=O)c2ccccc2)C[C@@H]1C(=O)NCc1ccc(-c2ncccn2)cc1` (relative stereo) [Example 19-5, cis-1-isobutyryl-6-methyl-4-(phenylsulfonyl)-N-(4-(pyrimidin-2-yl)benzyl)piperazine-2-carboxamide], the IC50 was 79.5 nM and the Emax was 101%.

In the case of `CC(C)C(=O)N1[C@H](C)CN(S(=O)(=O)c2ccccc2)C[C@@H]1C(=O)NCc1ccc(-c2nccs2)cc1` (relative stereo) [Example 19-6, cis-1-isobutyryl-6-methyl-4-(phenylsulfonyl)-N-(4-(thiazol-2-yl)benzyl)piperazine-2-carboxamide], the IC50 was 81.3 nM and the Emax stood at 98.7%.

For the molecule `CC(C)C(=O)N1[C@H](C)CN(S(=O)(=O)c2ccccc2)C[C@@H]1C(=O)NCc1ccc(-n2nccn2)cc1` (relative stereo) [Example 19-7, cis-N-(4-(2H-1,2,3-triazol-2-yl)benzyl)-1-isobutyryl-6-methyl-4-(phenylsulfonyl)piperazine-2-carboxamide], the IC50 stood at 82.2 nM and the Emax turned out to be 101%.

On to `CC(C)C(=O)N1[C@H](C)CN(S(=O)(=O)c2ccccc2)C[C@@H]1C(=O)NCc1ccc(-c2ncco2)cc1` (relative stereo) [Example 19-8, cis-1-isobutyryl-6-methyl-N-(4-(oxazol-2-yl)benzyl)-4-(phenylsulfonyl)piperazine-2-carboxamide], for which the IC50 stood at 146 nM and the maximal effect (Emax) came out at 99.5%.

As for `CC(C)C(=O)N1[C@H](C)CN(S(=O)(=O)c2ccccc2)C[C@@H]1C(=O)NCc1ccc(-n2cccn2)cc1` (relative stereo) [Example 19-9, cis-N-(4-(1H-pyrazol-1-yl)benzyl)-1-isobutyryl-6-methyl-4-(phenylsulfonyl)piperazine-2-carboxamide], the IC50 was 409 nM and the Emax came to 99.2%.

On to `CCCc1ccc(CNC(=O)[C@H]2CN(S(=O)(=O)c3ccccc3)C[C@@H](C)N2C(=O)C(C)C)cc1` (relative stereo) [Example 19-10, cis-1-isobutyryl-6-methyl-4-(phenylsulfonyl)-N-(4-propylbenzyl)piperazine-2-carboxamide], for which the 50% inhibitory concentration (IC50) stood at 158 nM and the Emax is 93.8%.

Regarding `CCOc1ccc(CNC(=O)[C@H]2CN(S(=O)(=O)c3ccccc3)C[C@@H](C)N2C(=O)C(C)C)cc1` (relative stereo) [Example 19-11, cis-N-(4-ethoxybenzyl)-1-isobutyryl-6-methyl-4-(phenylsulfonyl)piperazine-2-carboxamide], the IC50 was determined as 264 nM and the Emax turned out to be 93.1%.

Regarding `CC(C)C(=O)N1[C@H](C)CN(S(=O)(=O)c2ccccc2)C[C@@H]1C(=O)NCc1ccc(-c2ccccc2F)cc1` (relative stereo) [Example 21, cis-N-((2′-fluoro-[1,1′-biphenyl]-4-yl)methyl)-1-isobutyryl-6-methyl-4-(phenylsulfonyl)piperazine-2-carboxamide], the IC50 amounted to 92.2 nM and the maximal response (Emax) amounted to 90.7%.

With `CC(C)C(=O)N1[C@H](C)CN(S(=O)(=O)c2ccccc2)C[C@@H]1C(=O)NCc1ccc(-c2ccco2)cn1` (relative stereo) [Example 23, cis-N-((5-(furan-2-yl)pyridin-2-yl)methyl)-1-isobutyryl-6-methyl-4-(phenylsulfonyl)piperazine-2-carboxamide], the IC50 is 108 nM and the Emax is 98.9%.

Turning to `CC(C)C(=O)N1[C@H](C)CN(S(=O)(=O)c2ccccc2)C[C@@H]1C(=O)NCc1ccc(-c2ccco2)c(F)c1` (relative stereo) [Example 26, cis-N-(3-fluoro-4-(furan-2-yl)benzyl)-1-isobutyryl-6-methyl-4-(phenylsulfonyl)piperazine-2-carboxamide], the IC50 was 11.2 nM and the Emax is 100%.

Turning to `Cc1cc(-c2ccco2)ccc1CNC(=O)[C@H]1CN(S(=O)(=O)c2ccccc2)C[C@@H](C)N1C(=O)C(C)C` (relative stereo) [Example 29, cis-N-(4-(furan-2-yl)-2-methylbenzyl)-1-isobutyryl-6-methyl-4-(phenylsulfonyl)piperazine-2-carboxamide], the IC50 turned out to be 13.1 nM and the maximal effect (Emax) was found to be 99.6%.

Take `CC(C)C(=O)N1[C@H](C)CN(S(=O)(=O)c2ccccc2)C[C@@H]1C(=O)NCc1ccc(-c2ccco2)cc1F` (relative stereo) [Example 32, cis-N-(2-fluoro-4-(furan-2-yl)benzyl)-1-isobutyryl-6-methyl-4-(phenylsulfonyl)piperazine-2-carboxamide]: the IC50 is 58.5 nM and the maximum response (Emax) turned out to be 99.9%.

Take `CC(C)C(=O)N1[C@H](C)CN(S(=O)(=O)c2ccccc2)C[C@@H]1C(=O)NCc1ccc(-c2ccccn2)cc1` (relative stereo) [Example 42-1, cis-1-isobutyryl-6-methyl-4-(phenylsulfonyl)-N-(4-(pyridin-2-yl)benzyl)piperazine-2-carboxamide]: the IC50 stood at 121 nM and the Emax stood at 100%.

On to `COc1cc(CNC(=O)[C@H]2CN(S(=O)(=O)c3ccccc3)C[C@@H](C)N2C(=O)C(C)C)ccc1-c1ccco1` (relative stereo) [Example 47-1, cis-N-(4-(furan-2-yl)-3-methoxybenzyl)-1-isobutyryl-6-methyl-4-(phenylsulfonyl)piperazine-2-carboxamide], for which the IC50 was 19200 nM and the Emax was determined as 38.4%.

On to `CC(C)C(=O)N1[C@H](C)CN(S(=O)(=O)c2ccccc2)C[C@@H]1C(=O)NCc1ccc(-c2ccco2)c(C#N)c1` (relative stereo) [Example 47-2, cis-N-(3-cyano-4-(furan-2-yl)benzyl)-1-isobutyryl-6-methyl-4-(phenylsulfonyl)piperazine-2-carboxamide], for which the IC50 was 144 nM and the Emax was found to be 98.3%.

On to `CC(C)C(=O)N1[C@H](C)CN(S(=O)(=O)c2ccccc2)C[C@@H]1C(=O)NCc1cc(F)c(-c2ccco2)c(F)c1` (relative stereo) [Example 47-3, cis-N-(3,5-difluoro-4-(furan-2-yl)benzyl)-1-isobutyryl-6-methyl-4-(phenylsulfonyl)piperazine-2-carboxamide], for which the half-inhibitory concentration (IC50) was found to be 29.5 nM and the Emax was determined as 99.7%.

`COc1cc(-c2ccco2)ccc1CNC(=O)[C@H]1CN(S(=O)(=O)c2ccccc2)C[C@@H](C)N1C(=O)C(C)C` (relative stereo) [Example 47-4, cis-N-(4-(furan-2-yl)-2-methoxybenzyl)-1-isobutyryl-6-methyl-4-(phenylsulfonyl)piperazine-2-carboxamide]: the IC50 stood at 27.9 nM and the Emax was 94.2%.

`Cc1cc(-c2ccco2)c(F)cc1CNC(=O)[C@@H]1CN(S(=O)(=O)c2ccccc2)C[C@H](C)N1C(=O)C(C)C` (relative stereo) [Example 47-5, cis-N-(5-fluoro-4-(furan-2-yl)-2-methylbenzyl)-1-isobutyryl-6-methyl-4-(phenylsulfonyl) piperazine-2-carboxamide]: the half-maximal inhibitory concentration (IC50) is 14.6 nM and the Emax turned out to be 106%.
